Several values for one entry are separate records, joined by “and”; a condition that tells them apart may be missing. Equal entries are not always repeated.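 Results reflect a 48-hour exposure of cells in 96-well plates to compound at five concentrations. GI50 marks 50% less growth. TGI is the concentration that stops growth completely.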
How the values were obtained:
Experiment in all cases: NCI tumour cell line growth inhibition, 48 h
SNB-78 CNS = test system: SNB-78 CNS
HOP-62 NSCLC = test system: HOP-62 NSCLC
KM12 colon = test system: KM12 colon
SF-268 CNS = test system: SF-268 CNS
SK-MEL-5 melanoma = test system: SK-MEL-5 melanoma
786-0 renal = test system: 786-0 renal
SF-539 CNS = test system: SF-539 CNS
OVCAR-3 ovarian = test system: OVCAR-3 ovarian
SN12C renal = test system: SN12C renal
NCI-H460 lung = test system: NCI-H460 lung
IGROV1 ovarian = test system: IGROV1 ovarian
SNB-19 CNS = test system: SNB-19 CNS
MCF7 breast = test system: MCF7 breast
NCI/ADR-RES ovarian = test system: NCI/ADR-RES ovarian
EKVX NSCLC = test system: EKVX NSCLC
OVCAR-4 ovarian = test system: OVCAR-4 ovarian
DMS 114 small cell lung = test system: DMS 114 small cell lung
KM20L2 colon = test system: KM20L2 colon
HCT-15 colon = test system: HCT-15 colon
M14 melanoma = test system: M14 melanoma
NCI-H522 lung = test system: NCI-H522 lung
MOLT-4 leukemia = test system: MOLT-4 leukemia
OVCAR-5 ovarian = test system: OVCAR-5 ovarian
K-562 leukemia = test system: K-562 leukemia
MALME-3M melanoma = test system: MALME-3M melanoma
DLD-1 colon = test system: DLD-1 colon
HCC-2998 colon = test system: HCC-2998 colon
SK-MEL-2 melanoma = test system: SK-MEL-2 melanoma
HCT-116 colon = test system: HCT-116 colon
DMS 273 small cell lung = test system: DMS 273 small cell lung
HT29 colon = test system: HT29 colon
HOP-92 NSCLC = test system: HOP-92 NSCLC
CAKI-1 renal = test system: CAKI-1 renal
P388 leukemia = test system: P388 leukemia
SNB-75 CNS = test system: SNB-75 CNS
U251 CNS = test system: U251 CNS
HOP-18 NSCLC = test system: HOP-18 NSCLC
P388/ADR leukemia = test system: P388/ADR leukemia
A549 NSCLC = test system: A549 NSCLC
SR leukemia = test system: SR leukemia
SN12K1 renal = test system: SN12K1 renal
CCRF-CEM leukemia = test system: CCRF-CEM leukemia
LXFL 529 NSCLC = test system: LXFL 529 NSCLC
SK-OV-3 ovarian = test system: SK-OV-3 ovarian
OVCAR-8 ovarian = test system: OVCAR-8 ovarian
RXF 393 renal = test system: RXF 393 renal
COLO 205 colon = test system: COLO 205 colon
SF-295 CNS = test system: SF-295 CNS
A498 renal = test system: A498 renal
NCI-H226 lung = test system: NCI-H226 lung
SW-620 colon = test system: SW-620 colon
NCI-H23 lung = test system: NCI-H23 lung
ACHN renal = test system: ACHN renal
UACC-257 melanoma = test system: UACC-257 melanoma
HL-60(TB) leukemia = test system: HL-60(TB) leukemia
M19-MEL melanoma = test system: M19-MEL melanoma
LOX IMVI melanoma = test system: LOX IMVI melanoma
RPMI-8226 leukemia = test system: RPMI-8226 leukemia
UACC-62 melanoma = test system: UACC-62 melanoma
UO-31 renal = test system: UO-31 renal
SK-MEL-28 melanoma = test system: SK-MEL-28 melanoma
XF 498 CNS = test system: XF 498 CNS

## CCCSc1nc(COC(=O)NC)c(COC(=O)NC)n1C
SNB-78 CNS
  TGI: > 100 µM
HOP-62 NSCLC
  TGI: > 100 µM
KM12 colon
  TGI: > 100 µM
SF-268 CNS
  GI50: 44.4 µM and > 100 µM
  TGI: > 100 µM
SK-MEL-5 melanoma
  TGI: > 100 µM
786-0 renal
  TGI: > 100 µM
SF-539 CNS
  TGI: > 100 µM
OVCAR-3 ovarian
  TGI: > 100 µM
SN12C renal
  TGI: > 100 µM
NCI-H460 lung
  TGI: > 100 µM
IGROV1 ovarian
  TGI: > 100 µM
SNB-19 CNS
  TGI: > 100 µM
MCF7 breast
  TGI: > 100 µM
NCI/ADR-RES ovarian
  TGI: > 100 µM
EKVX NSCLC
  TGI: > 100 µM
OVCAR-4 ovarian
  TGI: > 100 µM
DMS 114 small cell lung
  TGI: > 100 µM
KM20L2 colon
  TGI: > 100 µM
HCT-15 colon
  TGI: > 100 µM
M14 melanoma
  TGI: > 100 µM
NCI-H522 lung
  GI50: 22.1 µM and 55.5 µM
  TGI: 45.1 µM and > 100 µM
MOLT-4 leukemia
  TGI: 56.6 µM and > 70 µM
OVCAR-5 ovarian
  TGI: > 100 µM
K-562 leukemia
  TGI: > 100 µM
MALME-3M melanoma
  TGI: > 100 µM
DLD-1 colon
  TGI: > 100 µM
HCC-2998 colon
  TGI: > 100 µM
SK-MEL-2 melanoma
  TGI: > 100 µM
HCT-116 colon
  TGI: > 100 µM
DMS 273 small cell lung
  TGI: > 100 µM
HT29 colon
  TGI: > 100 µM
HOP-92 NSCLC
  TGI: > 100 µM
CAKI-1 renal
  TGI: > 100 µM
P388 leukemia
  TGI: 54.8 µM
SNB-75 CNS
  TGI: > 100 µM
U251 CNS
  TGI: > 100 µM
HOP-18 NSCLC
  TGI: > 100 µM
P388/ADR leukemia
  TGI: 61.8 µM
A549 NSCLC
  TGI: > 100 µM
SR leukemia
  TGI: > 100 µM
SN12K1 renal
  TGI: > 100 µM
CCRF-CEM leukemia
  TGI: 86.1 µM and > 64.3 µM
LXFL 529 NSCLC
  TGI: > 100 µM
SK-OV-3 ovarian
  TGI: > 100 µM
OVCAR-8 ovarian
  TGI: > 100 µM
RXF 393 renal
  TGI: > 100 µM
COLO 205 colon
  TGI: > 100 µM
SF-295 CNS
  TGI: > 100 µM
A498 renal
  TGI: > 100 µM
NCI-H226 lung
  TGI: > 100 µM
SW-620 colon
  TGI: > 100 µM
NCI-H23 lung
  TGI: > 100 µM
ACHN renal
  TGI: 72.3 µM
UACC-257 melanoma
  TGI: > 100 µM
HL-60(TB) leukemia
  TGI: 89.6 µM and > 100 µM
M19-MEL melanoma
  TGI: > 100 µM
LOX IMVI melanoma
  TGI: > 100 µM
RPMI-8226 leukemia
  TGI: 57.4 µM and > 94.9 µM
UACC-62 melanoma
  TGI: > 100 µM
UO-31 renal
  TGI: > 100 µM
SK-MEL-28 melanoma
  TGI: > 100 µM
XF 498 CNS
  TGI: > 100 µM

Source: PubChem BioAssay (NCI)
